Measurements reported in patent publication US20240148821A1, “PHARMACEUTICAL USE OF CYCLIC PEPTIDE COMPOUND” (CHUGAI SEIYAKU KABUSHIKI KAISHA, priority 2021, published 2024).
Numbered stars: 1 amine (or outer) side, 2 acyl side, 3 side chain; on linkers, the order of the positions; unused ones are H or OH. Bridge positions count the residues as written; N and C are the ends. Square brackets hold non-standard residues; d marks the D form. Peptide text beside a SMILES is read from it. * marks the point of attachment. hPhe(3-Cl-4-CF3) = N[C@@H](CCc1ccc(C(F)(F)F)c(Cl)c1)C(=O)O; NMePhe(4-CF3) = CN[C@@H](Cc1ccc(C(F)(F)F)cc1)C(=O)O; hPhe(4-CF3) = N[C@@H](CCc1ccc(C(F)(F)F)cc1)C(=O)O; NMePhe(4-Cl) = CN[C@@H](Cc1ccc(Cl)cc1)C(=O)O; NMeGly(cPent) = CN[C@H](C(=O)O)C1CCCC1; dβ3hPip = O=C(C[C@H]1CCCCN1[*:1])[*:2]; NMeGly(cBu) = CN[C@H](C(=O)O)C1CCC1; NMeCha = CN[C@@H](CC1CCCCC1)C(=O)O; Azetidine(3,3-F2) = FC1(F)CN(*)C1; NMeI = CC[C@H](C)[C@H](NC)C(=O)O; NMeE = CN[C@@H](CCC(=O)O)C(=O)O; X17 = FC1(F)CN(*)CC(F)(F)C1(F)F; NMeD = CN[C@@H](CC(=O)O)C(=O)O; dNMeD = CN[C@H](CC(=O)O)C(=O)O; NMeL = CN[C@@H](CC(C)C)C(=O)O; NMeNle = CCCC[C@H](NC)C(=O)O; NMeV = CN[C@H](C(=O)O)C(C)C; Trifluoroethyl = FC(F)(F)C*; d(β3hA) = C[C@@H](N)CC(=O)O; NMeS = CN[C@@H](CO)C(=O)O; Morpholide = C1CN(*)CCO1; NMeA = CN[C@@H](C)C(=O)O; Piperidide = C1CCN(*)CC1; Pyrrolidide = C1CCN(*)C1; dNMeA = CN[C@H](C)C(=O)O; Ac5c = NC1(C(=O)O)CCCC1; Aze = O=C(O)[C@@H]1CCN1; Sar = CNCC(=O)O

target: protein-protein interaction between Kras and SOS1 (biotin-tagged human Kras loaded with GDP, His-tagged human SOS1) (Homo sapiens (Human), UniProt P01116, G12D); assay: Protein-protein interaction inhibition between Kras and SOS1 (KrasG12D-SOS PPI) using AlphaScreen; type: biochemical; details: AlphaScreen; biotin-tagged human Kras loaded with GDP, His-tagged human SOS1; read-out: KRAS G12D-SOS PPI IC50;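 also: kras produced in E. coli, Ni-coupled donor beads and streptavidin acceptor beads, excitation 680 nm with emission detected at 520–620 nm via singlet oxygen transfer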

| SMILES | IC50 [nM] |
| --- | --- |
| CC[C@H](C)[C@@H]1NC(=O)[C@H](CC(C)C)N(C)C(=O)C[C@@H](C(=O)N2CCCCC2)N(C)C(=O)[C@H](CC(C)C)N(C)C(=O)C2(CCCC2)NC(=O)[C@@H]2CCCN2C(=O)[C@H](CCc2ccc(C(F)(F)F)c(Cl)c2)NC(=O)CN(C)C(=O)[C@H](CC2CCCCC2)N(C)C(=O)[C@@H]2CCN2C(=O)[C@H](C)N(C)C1=O [Compound 1657] ([NMeL]I[NMeA][Aze][NMeCha][Sar][hPhe(3-Cl-4-CF3)]P[Ac5c][NMeL][NMeD]-Piperidide; lactam N-11) | 2.8 |
| CC[C@H](C)[C@@H]1NC(=O)[C@H](CC(C)C)N(C)C(=O)C[C@H](C(=O)N2CCCC2)N(C)C(=O)[C@H](C2CCCC2)N(C)C(=O)C2(CCCC2)NC(=O)[C@@H]2CCCN2C(=O)[C@H](CCc2ccc(C(F)(F)F)c(Cl)c2)NC(=O)CN(C)C(=O)[C@H](Cc2ccc(C(F)(F)F)cc2)N(C)C(=O)[C@@H]2CCN2C(=O)[C@H](C)N(C)C1=O [Compound 1765] ([NMeL]I[NMeA][Aze][NMePhe(4-CF3)][Sar][hPhe(3-Cl-4-CF3)]P[Ac5c][NMeGly(cPent)][dNMeD]-Pyrrolidide; lactam N-11) | 74 |
| CC[C@H](C)[C@@H]1NC(=O)[C@H](C2CCC2)N(C)C(=O)C[C@@H](C(=O)N2CCCCC2)N(C)C(=O)[C@H](C(C)C)N(C)C(=O)C2(CCCC2)NC(=O)[C@@H]2CCCN2C(=O)[C@H](CCc2ccc(C(F)(F)F)c(Cl)c2)NC(=O)CN(C)C(=O)[C@H](CC2CCCCC2)N(C)C(=O)[C@@H]2CCN2C(=O)[C@H](C)N(C)C1=O [Compound 1036] ([NMeGly(cBu)]I[NMeA][Aze][NMeCha][Sar][hPhe(3-Cl-4-CF3)]P[Ac5c][NMeV][NMeD]-Piperidide; lactam N-11) | 7.7 |
| CC[C@H](C)[C@@H]1NC(=O)[C@H](C(C)C)N(C)C(=O)C[C@@H](C(=O)N2CCCCC2)N(C)C(=O)[C@H](C(C)C)N(C)C(=O)C2(CCCC2)NC(=O)[C@@H]2CCCN2C(=O)[C@H](CCc2ccc(C(F)(F)F)c(Cl)c2)NC(=O)CN(C)C(=O)[C@H](CC2CCCCC2)N(C)C(=O)[C@@H]2CCN2C(=O)[C@H](C)N(C)C1=O [Compound 1767] ([NMeV]I[NMeA][Aze][NMeCha][Sar][hPhe(3-Cl-4-CF3)]P[Ac5c][NMeV][NMeD]-Piperidide; lactam N-11) | 7.2 |
| CC[C@H](C)[C@@H]1NC(=O)[C@H](COCC(F)(F)F)N(C)C(=O)C[C@@H](C(=O)N2CCCCC2)N(C)C(=O)[C@H](C(C)C)N(C)C(=O)C2(CCCC2)NC(=O)[C@@H]2CCCN2C(=O)[C@H](CCc2ccc(C(F)(F)F)c(Cl)c2)NC(=O)CN(C)C(=O)[C@H](CC2CCCCC2)N(C)C(=O)[C@@H]2CCN2C(=O)[C@H](C)N(C)C1=O [Compound 387] ([NMeS](Trifluoroethyl)I[NMeA][Aze][NMeCha][Sar][hPhe(3-Cl-4-CF3)]P[Ac5c][NMeV][NMeD]-Piperidide; lactam N-11) | 4.2 |
| CC[C@H](C)[C@@H]1NC(=O)[C@H](C(C)C)N(C)C(=O)C[C@H]2CCCCN2C(=O)[C@H](CC(C)C)N(C)C(=O)C2(CCCC2)NC(=O)[C@H](CC(C)C)N(C)C(=O)[C@H](CCc2ccc(C(F)(F)F)cc2)NC(=O)CN(C)C(=O)[C@H](Cc2ccc(Cl)cc2)N(C)C(=O)CN(C)C(=O)CN(C)C1=O [Compound 189] (cyclo([Ac5c][NMeL][dβ3hPip][NMeV]I[Sar][Sar][NMePhe(4-Cl)][Sar][hPhe(4-CF3)][NMeL])) | 110 |
| CC[C@H](C)[C@@H]1NC(=O)[C@H](CC(C)C)N(C)C(=O)C[C@@H](C(=O)N2CCOCC2)N(C)C(=O)[C@H](C2CCCC2)N(C)C(=O)C2(CCCC2)NC(=O)[C@H](CCC(=O)N2CC(F)(F)C2)N(C)C(=O)[C@H](CCc2ccc(C(F)(F)F)c(Cl)c2)NC(=O)CN(C)C(=O)[C@H](CC2CCCCC2)N(C)C(=O)[C@@H]2CCN2C(=O)[C@H](C)N(C)C1=O [Compound 2098] ([NMeL]I[NMeA][Aze][NMeCha][Sar][hPhe(3-Cl-4-CF3)][NMeE](Azetidine(3,3-F2))[Ac5c][NMeGly(cPent)][NMeD]-Morpholide; lactam N-11) | 8 |
| CC[C@H](C)[C@@H]1NC(=O)[C@H](CC(C)C)N(C)C(=O)C[C@@H](C(=O)N2CC(F)(F)C(F)(F)C(F)(F)C2)NC(=O)[C@H]([C@@H](C)CC)N(C)C(=O)C2(CCCC2)NC(=O)[C@@H]2CCCN2C(=O)[C@H](CCc2ccc(C(F)(F)F)c(Cl)c2)NC(=O)CN(C)C(=O)[C@H](CC2CCCCC2)N(C)C(=O)CN(C)C(=O)CN(C)C1=O [Compound 1265] ([NMeL]I[Sar][Sar][NMeCha][Sar][hPhe(3-Cl-4-CF3)]P[Ac5c][NMeI]D-X17; lactam N-11) | 280 |
| CCCC[C@H]1C(=O)N2CC[C@H]2C(=O)N(C)[C@@H](CC2CCCCC2)C(=O)N(C)[C@H](C)C(=O)N[C@@H](CCc2ccc(C(F)(F)F)c(Cl)c2)C(=O)N2CCC[C@H]2C(=O)NC2(CCCC2)C(=O)N(C)[C@@H](C(C)C)C(=O)N[C@H](C)CC(=O)N(C)[C@@H](C)C(=O)N[C@@H]([C@@H](C)CC)C(=O)N1C [Compound 2017] (cyclo([Ac5c][NMeV][d(β3hA)][NMeA]I[NMeNle][Aze][NMeCha][dNMeA][hPhe(3-Cl-4-CF3)]P)) | 350 |
